US6878689B2, “Preventives or remedies for heart failure” (Kaken Pharmaceutical Co., Ltd., priority 2000, dated 2005)
Where a SMILES comes first, the peptide text is derived from it. [ ]: non-standard residue; d: D form. d2Nal = N[C@H](Cc1ccc2ccccc2c1)C(=O)O

Tested on: papillary muscle of guinea-pig
Assay: Myocardial contractility (developed tension) in isolated, electrically driven papillary muscle of guinea-pig
Details: cumulative 10, 30 and 100 μM; n=5; FIG. 1
Description: [Test Example 1] Myocardial Contractility Enhancing Action of Pralmorelin in the Papillary Muscle of Guinea-Pig
The direct effect of pralmorelin on myocardial contractility was evaluated using the isolated cardiac muscle of guinea-pigs according to the standard method for evaluating myocardial contractility. • 1. Materials and Experimental Method • 1) Animal Used
Male Hartley guinea-pigs (body weight, 301-350 g; Japan SLC) were purchased. The animals were accommodated to an environment at a temperature of 23±2° C. and a humidity of 55±15% under 12-hr light/dark cycles while they were allowed to eat and drink water ad libitum until they weighed 360-480 g. Each test substance was tested on a group of five animals. • 2) Reagents Used
The test substances were pralmorelin dihydrochloride (KP-102), representatives of growth hormone secretagogues such as hexarelin, ghrelin and ibutamorelin methanesulfonate (the last being hereunder referred to as MK-0677) (which were prepared by the method described in JP 6-263737 A (kokai)), as well as a recombinant human growth hormone (Sumitomo Pharmaceutical) and amrinone (Sigma) which is a known therapeutic of acute heart failure. KP-102, hexarelin and MK-0677 were dissolved in distilled water. Ghrelin was dissolved in physiological saline. Amrinone was first dissolved in dimethyl sulfoxide and then diluted with physiological saline. The growth hormone was dissolved in a dedicated solubilizer (0.3 w/v % metacresol and 3.9 w/v % D-mannitol). None of the test substance solutions should be added in an amount exceeding 1 w/v %. All reagents other than the test substances were guaranteed products of Nacalai Tesque. • 3) Preparing Specimens of the Isolated Papillary Muscle
The guinea-pigs were stunned with a blow to the back of their head; thereafter, the carotid artery was incised and the animals were exsanguinated to death. The chest was opened, the blood vessels in the upper part of the heart were cut and the heart was removed. The heart was immediately transferred into a Krebs-Henseleit (K-H) nutrient solution (NaCl, 118.0 mM; KCl, 4.7 mM; CaCl2. 2H2O, 1.0 mM; KH2PO4, 1.2 mM; MgSO4.7H2O, 1.2 mM; NaHCO3, 25.0 mM; glucose, 11.0 mM) that had been fully aerated with 95% O2-5% CO2. The heart was fixed on a rubber-lined Petri dish with needles such that its front face was seen. The ventricular wall of the upper right ventricle (toward the atrium) was excised transversely along the atrium, then excised longitudinally along the interventricular septum so that the ventricular wall was opened to expose the right ventricular papillary muscle. Subsequently, the entire surface of the left ventricle was cut open from the aorta (down) to the apex and the anterior wall of the left ventricle was opened wide, to both right and left, and fixed to expose the papillary muscle of the left ventricle. The tricupsid or mitral valve was cut off from the ventricle and the papillary muscle was cut off at the base to prepare a specimen of papillary muscle. The base of the specimen was fixed to field stimulating electrodes in an organ bath filled with 15 mL of the nutrient solution. The tendinous cord adhering to the valve was tied up with a thread and connected to an FD pickup (TB-612T, Nihon Kohden). A resting tension of 0.5 g was loaded and the papillary muscle was driven with an electric stimulator (SEN-3201, Nihon Kohden) at a frequency of 1 Hz by pulses of 20-ms duration and at a voltage intensity about 1.2 times the threshold. After an equilibration period of about 1 hr, KP-102, hexarelin and amrinone were each applied cumulatively up to amounts of 10, 30 and 100 μM. After examination of the changes in inotropic action due to the application of the test substances, 12.5 mM of CaCl2 was added and the maximum tension that was developed by each specimen was obtained. […]

C[C@H](NC(=O)[C@@H](Cc1ccc2ccccc2c1)NC(=O)[C@@H](C)N)C(=O)N[C@@H](Cc1c[nH]c2ccccc12)C(=O)N[C@H](Cc1ccccc1)C(=O)N[C@@H](CCCCN)C(N)=O [KP-102, D-alanyl-3-(naphthalen-2-yl)-D-alanyl-L-alanyl-L-tryptophyl-D-phenylalanyl-L-lysinamide] (H-[dA][d2Nal]AW[dF]K-NH2)
tension development (positive inotropic action) vs baseline: significant effect over the baseline value
